Entries after “also recorded” stand apart in the source; their conditions may differ. Where two headings read alike, the source gives them in different places.
How the values were obtained:
[1] = tested on: rat bronchioles in precision-cut lung slices (PCLS); assay: Airway constriction/relaxation in rat precision-cut lung slices (PCLS); conditions: for bronchorelaxant action when XE991 is included: with XE991 10 μM
Description: Another investigation was performed to investigate the ability of KCNQ channel activators to attenuate MeCh-induced concentration-dependent constriction of rat bronchioles in precision-cut lung slices (PCLS). The PCLS were prepared using methods described by Brueggemann et al., “KCNQ (Kv7) potassium channel activators as bronchodilators: combination with a β2-adrenergic agonist enhances relaxation of rat airways,” Am J Physiol Lung Cell Mol Physiol (in press). PCLS were superfused with increasing concentrations of MeCh in the range from 100 nM to 1 μM. Each concentration was applied for thirty minutes, followed by a forty-five minute washout prior to application of the next MeCh concentration (FIG. 12A,B). […] Percent of airway constriction, relative to the cross-sectional area measured before the initial MeCh treatment, was calculated for each MeCh concentration and plotted against concentration of MeCh.
Bronchorelaxant effects were further assessed by measuring the extent of bronchoconstriction when MeCh was applied in the absence or presence of different structurally unrelated KCNQ channel activators (or vehicle).
FIG. 13C is a representative time course of changes in lumenal area of a small airway in rat PCLS on application of 230 nM MeCh (thirty minutes) followed by application of 230 nM MeCh in the presence of 10 nM formoterol (FF, thirty minutes). Dashed vertical lines marked “max” and “final” indicate 1 minute time intervals where the maximum or final relaxation was measured relative to the MeCh-induced constriction (measured during the last minute of MeCh alone). FIG. 13D is a representative time course of changes in lumenal area of a small airway treated as in panel C, except that 10 μM retigabine was included with the formoterol treatment (“FF+R,” thirty minutes).
The amount of desensitization for each concentration of formoterol in the absence and presence of 10 μM retigabine was estimated by subtraction of final relaxation (after thirty-minute treatment) from maximal relaxation.
To further investigate the desensitization to formoterol in rat PCLS, formoterol (10 nM) was applied twice, at a 90 minute interval, to airways constricted repetitively with 230 nM MeCh.

[2] = biological target: vascular L-type Ca^2+ channels (Homo sapiens, UniProt Q13936); conditions: vascular smooth muscle cells
Chain of vascular L-type Ca^2+ channels (Q13936 whole entry): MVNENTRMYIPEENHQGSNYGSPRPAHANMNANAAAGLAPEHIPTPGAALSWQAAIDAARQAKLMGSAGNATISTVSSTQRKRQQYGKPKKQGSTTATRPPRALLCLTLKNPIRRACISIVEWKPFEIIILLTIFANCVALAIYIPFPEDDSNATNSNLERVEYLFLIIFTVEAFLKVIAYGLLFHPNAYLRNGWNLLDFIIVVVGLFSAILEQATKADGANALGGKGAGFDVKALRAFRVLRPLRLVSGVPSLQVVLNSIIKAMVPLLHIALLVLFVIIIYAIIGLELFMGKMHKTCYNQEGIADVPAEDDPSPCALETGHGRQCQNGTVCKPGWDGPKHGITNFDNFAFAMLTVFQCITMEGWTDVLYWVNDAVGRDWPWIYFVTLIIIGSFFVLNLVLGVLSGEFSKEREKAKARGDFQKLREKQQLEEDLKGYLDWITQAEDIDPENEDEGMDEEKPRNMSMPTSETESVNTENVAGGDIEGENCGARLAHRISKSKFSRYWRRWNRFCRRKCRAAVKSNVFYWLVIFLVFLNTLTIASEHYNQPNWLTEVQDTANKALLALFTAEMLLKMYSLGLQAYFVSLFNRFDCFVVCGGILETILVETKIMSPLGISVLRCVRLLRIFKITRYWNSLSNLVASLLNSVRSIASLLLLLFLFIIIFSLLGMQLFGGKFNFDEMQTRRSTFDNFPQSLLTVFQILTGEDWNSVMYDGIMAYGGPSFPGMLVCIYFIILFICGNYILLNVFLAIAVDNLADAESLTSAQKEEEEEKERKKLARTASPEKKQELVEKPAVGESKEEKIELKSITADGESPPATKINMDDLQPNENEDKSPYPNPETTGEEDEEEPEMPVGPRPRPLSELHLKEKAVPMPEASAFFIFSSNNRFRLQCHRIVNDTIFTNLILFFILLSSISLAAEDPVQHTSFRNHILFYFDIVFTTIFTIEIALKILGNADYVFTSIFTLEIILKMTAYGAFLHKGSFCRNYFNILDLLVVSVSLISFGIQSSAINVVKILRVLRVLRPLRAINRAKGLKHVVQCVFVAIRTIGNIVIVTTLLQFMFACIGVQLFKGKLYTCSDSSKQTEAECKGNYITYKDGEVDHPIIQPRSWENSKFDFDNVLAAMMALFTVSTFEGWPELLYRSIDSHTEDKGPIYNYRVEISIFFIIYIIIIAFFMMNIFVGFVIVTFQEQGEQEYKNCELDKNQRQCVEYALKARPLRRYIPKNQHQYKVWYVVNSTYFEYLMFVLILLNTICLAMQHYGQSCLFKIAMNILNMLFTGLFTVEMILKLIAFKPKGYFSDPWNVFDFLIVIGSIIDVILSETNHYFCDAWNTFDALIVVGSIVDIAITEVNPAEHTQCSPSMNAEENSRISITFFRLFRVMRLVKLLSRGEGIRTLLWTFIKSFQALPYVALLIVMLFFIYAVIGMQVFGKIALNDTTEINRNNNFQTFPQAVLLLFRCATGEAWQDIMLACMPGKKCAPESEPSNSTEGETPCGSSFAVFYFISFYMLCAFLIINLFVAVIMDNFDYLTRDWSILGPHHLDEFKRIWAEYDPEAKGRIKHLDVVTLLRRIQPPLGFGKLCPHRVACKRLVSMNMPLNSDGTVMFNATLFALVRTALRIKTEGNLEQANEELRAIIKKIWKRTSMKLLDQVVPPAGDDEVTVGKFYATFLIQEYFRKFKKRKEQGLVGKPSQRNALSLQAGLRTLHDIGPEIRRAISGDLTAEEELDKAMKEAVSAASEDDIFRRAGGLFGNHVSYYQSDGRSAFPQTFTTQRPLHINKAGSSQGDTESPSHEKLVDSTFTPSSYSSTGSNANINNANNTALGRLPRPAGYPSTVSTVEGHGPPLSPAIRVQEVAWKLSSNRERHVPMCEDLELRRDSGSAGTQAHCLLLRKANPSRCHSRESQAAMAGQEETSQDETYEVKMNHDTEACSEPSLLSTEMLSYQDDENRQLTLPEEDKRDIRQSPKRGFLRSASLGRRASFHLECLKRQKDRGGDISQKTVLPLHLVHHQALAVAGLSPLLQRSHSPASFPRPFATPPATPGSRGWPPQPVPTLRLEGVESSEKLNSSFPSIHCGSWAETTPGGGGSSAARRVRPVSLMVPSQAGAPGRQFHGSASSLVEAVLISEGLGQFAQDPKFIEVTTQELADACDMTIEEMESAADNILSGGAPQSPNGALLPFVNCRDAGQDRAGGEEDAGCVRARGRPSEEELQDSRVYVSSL
Chain of vascular L-type Ca^2+ channels (P54284 whole entry partner): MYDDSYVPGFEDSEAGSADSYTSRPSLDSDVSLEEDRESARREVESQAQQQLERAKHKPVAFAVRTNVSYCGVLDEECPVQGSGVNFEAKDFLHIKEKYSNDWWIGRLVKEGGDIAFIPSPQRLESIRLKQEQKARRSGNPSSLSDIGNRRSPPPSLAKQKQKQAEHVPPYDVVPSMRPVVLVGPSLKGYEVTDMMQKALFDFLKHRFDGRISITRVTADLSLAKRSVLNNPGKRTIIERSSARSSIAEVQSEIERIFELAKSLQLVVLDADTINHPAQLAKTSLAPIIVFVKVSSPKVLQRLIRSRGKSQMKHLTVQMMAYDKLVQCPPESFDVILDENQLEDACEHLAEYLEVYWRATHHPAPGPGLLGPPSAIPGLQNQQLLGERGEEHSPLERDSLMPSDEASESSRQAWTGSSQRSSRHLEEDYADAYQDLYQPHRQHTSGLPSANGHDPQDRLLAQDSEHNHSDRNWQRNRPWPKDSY
Chain of vascular L-type Ca^2+ channels (P54289 25-956 partner limits assumed): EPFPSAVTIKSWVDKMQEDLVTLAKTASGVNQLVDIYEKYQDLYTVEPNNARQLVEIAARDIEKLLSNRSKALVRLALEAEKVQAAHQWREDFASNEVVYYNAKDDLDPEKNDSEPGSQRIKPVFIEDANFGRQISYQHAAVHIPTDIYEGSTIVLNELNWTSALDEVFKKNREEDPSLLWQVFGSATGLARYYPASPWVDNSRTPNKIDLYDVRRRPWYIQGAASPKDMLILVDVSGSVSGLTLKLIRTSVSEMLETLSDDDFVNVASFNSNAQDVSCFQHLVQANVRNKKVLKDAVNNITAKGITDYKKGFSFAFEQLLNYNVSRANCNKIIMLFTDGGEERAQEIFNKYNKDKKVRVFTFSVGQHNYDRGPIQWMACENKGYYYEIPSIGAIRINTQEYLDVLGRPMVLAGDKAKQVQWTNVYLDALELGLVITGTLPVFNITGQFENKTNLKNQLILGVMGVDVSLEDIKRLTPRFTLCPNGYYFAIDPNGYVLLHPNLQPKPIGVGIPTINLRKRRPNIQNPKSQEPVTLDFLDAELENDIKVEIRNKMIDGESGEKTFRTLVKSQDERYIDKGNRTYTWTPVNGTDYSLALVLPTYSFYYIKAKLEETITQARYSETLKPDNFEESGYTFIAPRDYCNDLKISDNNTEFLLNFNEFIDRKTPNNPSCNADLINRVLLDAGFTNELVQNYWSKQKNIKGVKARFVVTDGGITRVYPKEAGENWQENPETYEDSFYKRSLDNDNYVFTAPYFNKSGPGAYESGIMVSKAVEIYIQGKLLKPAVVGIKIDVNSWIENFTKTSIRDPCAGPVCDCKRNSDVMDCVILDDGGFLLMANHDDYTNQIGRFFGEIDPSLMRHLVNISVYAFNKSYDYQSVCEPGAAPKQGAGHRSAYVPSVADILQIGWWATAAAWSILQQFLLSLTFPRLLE
Chain of vascular L-type Ca^2+ channels (P54289 957-1103 partner limits assumed): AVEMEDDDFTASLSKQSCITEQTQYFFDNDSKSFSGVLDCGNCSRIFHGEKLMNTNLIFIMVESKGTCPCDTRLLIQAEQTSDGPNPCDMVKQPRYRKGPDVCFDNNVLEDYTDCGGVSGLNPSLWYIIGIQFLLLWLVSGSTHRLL
Description: The activities were measured for two types of ion channels that are perhaps the most important in determining the contractile state of vascular smooth muscle cells: potassium (K^+) channels, which determine the resting membrane voltage, and voltage-sensitive calcium (Ca^2+) channels (VSCC), the activation of which allows Ca^2+ influx and vasoconstriction. […] The actions of these drugs can be assessed at the level of isolated arterial myocytes and intact pressurized arteries.

[3] = compared with celecoxib; cited from earlier work
vascular Kv7 channels = assay: Electrophysiology of Kv7 currents in vascular smooth muscle cells; type: cell-based, rat and human; conditions: for effect on vascular Kv7 channels: vascular smooth muscle cells
Description: The scope of the present invention further encompasses the tools used to measure vascular Kv7 channel activities and/or functional contributions of these channels in vascular smooth muscle cells. […] For example, flupirtine is a known Kv7 channel activator used to treat pain; plasma concentrations achieved clinically can be as high as about 12 μM with a 100 mg dose (Abrams et al., “Pharmacokinetics of flupirtine in elderly volunteers and in patients with moderate renal impairment,” Postgraduate Medical Journal, 64: 361-363 (1988)) and doses up to about 600 mg are routinely given to treat chronic pain. […] Further indications to support such predictions may be obtained by measuring the effects of drugs on constriction/dilation of pressurized arteries.

KCNQ channels = assay: Patch-clamp of KCNQ currents in rat airway myocytes (ASMCs); type: cell-based
Description: An investigation relating to these aspects of the invention was conducted to determine whether KCNQ (Kv7) K^+ channels are expressed and functional in rat airway myocytes. To accomplish this, a combination of real time polymerase chain reaction (RT-PCR) and patch-clamp electrophysiology was used. Isolation of rat ASMCs from bronchial strips for the patch-clamp electrophysiology as well as RNA isolation from rat trachea for the RT-PCR were performed using methods as described in Brueggemann et al., “KCNQ (Kv7) potassium channel activators as bronchodilators: combination with a β2-adrenergic agonist enhances relaxation of rat airways,” Am J Physiol Lung Cell Mol Physiol (in press), incorporated herein by reference.
Therefore K^+ currents in enzymatically dispersed rat airway myocytes were measured using patch-clamp electrophysiology.
After 10 minutes of MeCh treatment, the time course recording was interrupted for 10 minutes for measurement of steady-state I-V relationship (time break indicated by vertical gray lines). Then, after an additional one minute recording at −20 mV holding voltage, retigabine (10 μM) was applied in the presence of MeCh for 5 minutes. The time course recording was interrupted again for ten minutes for measurement of steady-state I-V relationship and, after an additional one minute time course recording, XE991 (1 μM) was applied in the presence of MeCh and retigabine for ten minutes.
The investigation examined whether the bronchorelaxant effects of long-acting β2-adrenergic receptor agonist, formoterol, were mediated via activation of KCNQ channels in rat airway myocytes. […] The time course recording was interrupted for 10 minutes for measurement of steady-state I-V relationship (time break indicated by vertical gray lines). After an additional 5 minutes recording, retigabine (10 μM) was applied in the continued presence of formoterol. The time course recording was interrupted again for 10 minutes for recording of steady-state I-V curves, and, after an additional 5 minutes recording, XE991 (1 μM) was applied in the presence of retigabine.

human PCLS = assay: Airway relaxation in human PCLS from an asthmatic lung; conditions: 30 pM alone, thirty-minute treatment (H1+F)
Description: FIG. 15A is a representative recording of airway area from a PCLS derived from an asthmatic human lung.

[4] = tested on: ovalbumin-sensitized guinea pigs; assay: Aerosolized ovalbumin challenge with inhaled retigabine in guinea pigs; conditions: thirty-minute exposure with ovalbumin, doses up to 1 mM
Description: To assess the feasibility of inhalational therapy with a Kv7 channel activator, an investigation was conducted to assess the ability of retigabine to exert a therapeutic anti-bronchospastic benefit in vivo. […] This model involves a series of three intraperitoneal injections of ovalbumin (OA) or saline (as control) over a one week period, followed by a two-week sensitization period, and finally challenge with aerosolized ovalbumin.
In the investigation, two saline-control and two ovalbumin-sensitized animals were exposed to aerosolized ovalbumin on three consecutive days, but in this case the ovalbumin treatment was administered with varying doses of retigabine on consecutive days.

[5] = randomized clinical trials / clinical studies; cited from earlier work
Sprague-Dawley rats = assay: Mean arterial pressure and mesenteric vascular resistance in anesthetized instrumented rats; type: in vivo, rat
Kv7 channels = assay: Perforated patch clamp of Kv7 currents in freshly isolated guinea pig ASMCs; type: cell-based
Description: Another investigation relating to this aspect of the invention was directed to investigating Kv7 currents in freshly dissociated guinea pig ASMCs. […] 197-218 (1992), ASMCs were isolated from guinea pig bronchioles by enzymatic digestion and whole cell perforated patch clamp electrophysiology was used to record Kv7 currents. Kv7 currents were recorded in isolation from other ionic currents by including 100 μM gadolinium chloride in the external solution and applying relatively long (about five second) voltage steps, during which many other classes of channels inactivate.

[6] = 100 mg dose; cited from earlier work
[7] = 10 nM, 230 nM MeCh (FIG. 14A,C)
[8] = 10 nM, 90 minute interval (FIG. 14A,C)
[9] = formoterol 10 nM alone (FIG. 14B,D)

With Cc1ccc(C)c(-c2cc(C(F)(F)F)nn2-c2ccc(S(N)(=O)=O)cc2)c1 [2,5-dimethyl-celecoxib] the “reduction of MeCh-induced airway constriction” value ([1]; 10 μM, 230 nM MeCh) was 23%, the “bronchorelaxant action when XE991 is included” value [1] was “not significantly reduced” and the “effect on vascular L-type Ca^2+ channels” value [2] was “inhibitor”. The anti-cancer activity [3] was “stronger anti-cancer activity than celecoxib itself”, the “effect on vascular Kv7 channels” value (vascular Kv7 channels) was “potent activator” and the “effect on KCNQ currents at −20 mV holding voltage” value (shortened to “effect … at −20 mV holding voltage”) (KCNQ channels; rat ASMCs, 10 μM) was “effective as an activator”.
With COc1ccc(C[C@@H](C)NC[C@H](O)c2ccc(O)c(NC=O)c2)cc1.COc1ccc(C[C@@H](C)NC[C@H](O)c2ccc(O)c(NC=O)c2)cc1.O=C(O)/C=C/C(=O)O [formoterol, formoterol fumarate] the “final relaxation after thirty minutes, first application” value [1, 7] was 46±14%, the “peak relaxation, first application” value [1, 7] was 68±10% and the “final relaxation, second application” value [1, 8] was 32±6%. The “peak relaxation, second application” value [1, 8] was 48±8%, the “maximum relaxation of airways constricted with MeCh” value ([1]; at 1 μM, 230 nM MeCh) was 72±5% and the “time course of relaxation response” value ([1]; concentrations greater than or equal to 10 nM) was “noticeable time-dependent decline in the relaxation response”. For the same molecule, the “final relaxation, acute exposure of the same slices” value [1, 9] was 34±6%, the “peak relaxation, acute exposure of the same slices” value [1, 9] was 59±4% and the “effect … at −20 mV holding voltage” value (KCNQ channels; rat ASMCs, 10 nM) was “did not enhance KCNQ currents”. For the same molecule, the “relaxation of histamine-constricted asthmatic human airway” value (human PCLS) was 18%.
For CCOC(=O)Nc1ccc(NCc2ccc(F)cc2)cc1N [retigabine], the “reduction of MeCh-induced airway constriction” value ([1]; 10 μM, 230 nM MeCh) was “about 31%”, the “relaxation when applied alone” value ([1]; 10 μM, 230 nM MeCh) was 45.7±4.9% and the EC50 ([1]; Rattus norvegicus, read-out: EC50 of relaxation of pre-constricted airways) was 3600 ± 300 nM. The maximum relaxation ([1]; pre-constricted thirty minutes with 230 nM MeCh) was 61±9% and the “effect on saline control animals” value [4] was “no apparent effect”.
In the case of O=C(O)Cc1ccccc1Nc1c(Cl)cccc1Cl [diclofenac], the “risk of cardiovascular (CV) events” value [5] is given as “significantly increased the risk of cardiovascular (CV) events” and the “effect on vascular Kv7 channels” value (vascular Kv7 channels) is given as “pronounced effects”.
In the case of CS(=O)(=O)c1ccc(C2=C(c3ccccc3)C(=O)OC2)cc1 [rofecoxib], the “effect on vascular L-type Ca^2+ channels” value [2] is given as “does not exhibit either effect”, the “risk of cardiovascular (CV) events” value [5] is given as “significantly increased the risk of cardiovascular (CV) events” and the “effect on vascular Kv7 channels” value (vascular Kv7 channels) is given as “does not exhibit either effect”.
For zinc pyrithione, the “reduction of MeCh-induced airway constriction” value ([1]; 1 μM, 230 nM MeCh, relative to vehicle) was 21%, the “bronchorelaxant action when XE991 is included” value [1] was “suppressed or prevented” and the “effect … at −20 mV holding voltage” value (KCNQ channels; rat ASMCs, 100 nM) was “enhanced”. For the same molecule, the “threshold of KCNQ channel activation” value (KCNQ channels; voltage step protocol, retigabine 10 μM, ZnPyr 100 nM) was “shifted the threshold of channel activation to more negative voltages”.
For O=C1N(c2ccccc2)c2ccccc2C1(Cc1ccncc1)Cc1ccncc1 [linopirdine], the “mean arterial pressure (MAP)” value (Sprague-Dawley rats) was “opposite effects”, the “mesenteric vascular resistance (MVR)” value (Sprague-Dawley rats) was “opposite effects” and the “effect on ASMC Kv7 currents” value (Kv7 channels; celecoxib 10 μM at −20 mV) was “complete suppression”.
In the case of Cc1ccc(-c2cc(C(F)(F)F)nn2-c2ccc(S(N)(=O)=O)cc2)cc1 [celecoxib], the “risk of cardiovascular (CV) events” value [5] is given as “failed to demonstrate an increased CV risk”.
With CC(=O)OC(C)C[N+](C)(C)C (stereo not shown) [methacholine] the EC50 ([1]; rat PCLS, 100 nM to 1 μM, Hill fit, n=5, read-out: EC50 of airway constriction) was 248 ± 49 nM, the “Hill coefficient of airway constriction” value ([1]; rat PCLS, n=5) was 1.6±0.2 and the maximal constriction ([1]; rat PCLS, n=5) was 81±7%. The “reduction of KCNQ currents at −20 mV” value (KCNQ channels; rat ASMCs, 230 nM, n=7) was 55.1±6.2% and the “effect on ASMC Kv7 currents” value (Kv7 channels; 100 nM, −20 mV) was “completely suppressed”.
With O=C1c2ccccc2C(Cc2ccncc2)(Cc2ccncc2)c2ccccc21 [XE991] the “effect on KCNQ currents in the presence of retigabine” value (KCNQ channels; 1 μM, subsequent application after retigabine (with MeCh or formoterol)) was “completely abolished; also recorded: effectively abolished”, the “effect … at −20 mV holding voltage” value (KCNQ channels; rat ASMCs, 10 μM) was “inhibited” and the “effect on ASMC Kv7 currents” value (Kv7 channels; celecoxib 10 μM at −20 mV) was “complete suppression”.
In the case of CCOC(=O)Nc1ccc(NCc2ccc(F)cc2)nc1N [flupirtine], the “plasma concentration achieved clinically” value [6] is listed as “about 12 μM” and the “increase of vascular Kv7 current” value (vascular Kv7 channels; 10 μM) is listed as 100%.
In the case of CC(C)NCC(O)c1ccc(O)c(O)c1 (stereo not shown) [isoproterenol], the “effect … at −20 mV holding voltage” value (KCNQ channels; rat ASMCs, 100 nM) is reported as “ineffective in enhancement of KCNQ currents”.
For NCCc1c[nH]cn1 [histamine], the “effect on ASMC Kv7 currents” value (Kv7 channels; 30 μM) was “significantly suppressed”.

— patent publication US9326955B2, “Combination pharmaceuticals and methods thereof using proteinacious channels as treatments for medical conditions” (Loyola University Chicago, priority 2008, dated 2016)
